Measurements as given in the supplement of paper PMC10307832.

Tests used:
Assay in all cases: relative viability (nuclei count vs DMSO), 5 days (fraction); higher = more cells survive
[1] = compound: C1=CC=C2C(=C1)N=C(S2)C(C#N)C3=NC(=NC=C3)NCCC4=CN=CC=C4 + C[C@@H](Oc1cc(-c2cnn(C3CCNCC3)c2)cnc1N)c1c(Cl)ccc(F)c1Cl [Crizotinib] (partner 1 µM)
Method in brief: (§1)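 Each reported value is a median over duplicate plates. It expresses relative viability: treated-well nuclei count divided by vehicle-well nuclei count. Lung cancer cell lines in 1536-well plates were dosed by pin tool a day after seeding, alone with one drug or with a fixed anchor-drug dose plus five library-drug doses (not always all listed) in √10 steps, and nuclei were counted after 5 days.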

[2] = compound: C1=CC=C2C(=C1)N=C(S2)C(C#N)C3=NC(=NC=C3)NCCC4=CN=CC=C4 + CS(=O)(=O)N1CCN(Cc2cc3nc(-c4cccc5[nH]ncc45)nc(N4CCOCC4)c3s2)CC1 [Pictilisib] (partner 1 µM)
Method in brief: as §1

[3] = compound: COc1cc2/c(=N/c3ccc(Br)cc3F)nc[nH]c2cc1OCC1CCN(C)CC1 [Vandetanib] + O=C(CCCCCCC(=O)Nc1ccccc1)NO [Vorinostat] (partner 1 µM)
Method in brief: as §1

[4] = compound: COc1cc(N2CCC(N3CCN(C)CC3)CC2)ccc1Nc1ncc(Cl)c(Nc2ccccc2S(=O)(=O)C(C)C)n1 [NVP-TAE684] + CC(=O)c1c(C)c2cnc(Nc3ccc(N4CCNCC4)cn3)nc2n(C2CCCC2)c1=O [Palbociclib] (partner 0.5 µM)
Method in brief: as §1

Cell Line	relative viability ([1]; first compound 0.005 µM)	relative viability ([1]; first compound 0.01581 µM)	relative viability ([1]; first compound 0.05 µM)	relative viability ([1]; first compound 0.1581 µM)	relative viability ([1]; first compound 0.5 µM)	relative viability ([2]; first compound 0.005 µM)	relative viability ([2]; first compound 0.01581 µM)	relative viability ([2]; first compound 0.05 µM)	relative viability ([2]; first compound 0.1581 µM)	relative viability ([2]; first compound 0.5 µM)	relative viability ([3]; first compound 0.02 µM)	relative viability ([3]; first compound 0.06325 µM)	relative viability ([3]; first compound 0.2 µM)	relative viability ([3]; first compound 0.6325 µM)	relative viability ([3]; first compound 2 µM)	relative viability ([4]; first compound 0.2 µM)	relative viability ([4]; first compound 0.6325 µM)	relative viability ([4]; first compound 2 µM)
LCLC-103H	1.12	1.03	1	1.13	0.964	0.493	0.446	0.498	0.707	0.681	0.756	0.759	0.822	0.755	0.814	0.482	0.447	0.413
NCI-H520	0.564	0.856	0.947	0.882	0.569	0.178	0.328	0.307	0.362	0.256	0.7	0.706	0.739	0.677	0.639	0.227	0.267	0.152
RERF-LC-KJ	0.942	0.856	0.819	0.891	0.749	0.739	0.64	0.48	0.529	0.403	0.689	0.607	0.724	0.608	0.536	1.14	1.11	0.907
NCI-H1975	0.766	1.18	0.954	1.14	0.667	0.262	0.28	0.284	0.307	0.255	0.71	0.646	0.709	0.665	0.636	0.591	0.589	0.37
PC-3 [JPC-3]	0.712	1.07	1.01	0.948	0.846	0.605	0.643	0.722	0.731	0.672	0.808	0.739	0.492	0.449	0.348	0.53	0.521	0.422
